From PMC6774072, “Azologization and repurposing of a hetero-stilbene-based kinase inhibitor: towards the design of photoswitchable sirtuin inhibitors” (Beilstein Journal of Organic Chemistry, 2019)

Tests used:
[1] = isomer composition of 11 at thermal equilibrium and photostationary states, HPLC with UV–vis detection at the isosbestic points; assay type: physicochemical
Source text: The photoisomerization could be reversed by exposure to visible light, i.e. 452 nm, albeit the PSS at 452 nm still comprised about 25% of (Z)-11 as determined by HPLC analysis using UV–vis detection at the isosbestic points (Table 2). Light of 500 nm could also reverse photoisomerization, but was not as effective as 452 nm radiation. […] Switching between the two PSS could be repeated several times without any observable fatigue of the compound (Figure 5).
Photochemistry: All photoisomerization experiments were conducted under ruby light of 630 nm. Illumination was executed using a Bio-Link 254 Crosslinker from Vilber-Lourmat equipped with six Vilber-Lourmat T8-C lamps (8 W, 254 nm) or six Vilber-Lourmat T8-L lamps (8W, 365 nm), respectively. Visible light radiation of 630 nm (red), 500 nm (green) and 452 nm (blue) was derived from a Paulmann FlexLED 3D strip. All compounds were irradiated in solution, using spectrophotometric grade solvents. Photoisomerization and UV–vis spectra measurement was conducted in quartz cuvettes at room temperature. […]
of 11 (1 mM) were injected before and after 5 minutes of 365 nm or 1 minute of 452 nm irradiation. Isocratic elution with 60% MeOH and 40% water (+ 0.1% HCOOH) for 12 minutes at 1 mL∙min−1 was applied and gave complete separation of the isomers. Integration of the peak areas at the isosbestic points (λobs = 244 nm and 270 nm) gave the relative percentage of (E)-11 and (Z)-11, respectively (Figure S5).
Table S1. Isomer composition ((E)-11 / (Z)-11) at the thermal equilibrium (∆) and the PSS after 5 minutes of 365 nm and 1 minute of 452 nm radiation. […]

[2] = PSS thermal half-life of 11 by UV/Vis spectroscopy; assay type: physicochemical; conditions: PSS after 365 nm irradiation; 50 µM in 5% DMSO (v/v) in enzyme assay buffer
Protocol: PSS thermal half-life of 11
The thermal half-life of 11 after 5 minutes of 365 nm irradiation was determined by UV/Vis-spectroscopy. Therefore, a 50 µM solution of 11 in 5% DMSO (v/v) in enzyme assay buffer was prepared and an initial spectrum of the thermal equilibrium recorded. After 5 minutes of irradiation with 365 nm the increase of absorbance at the thermal equilibrium maximum ( λ = 324 nm) was followed over a period of 96 hours (Figure S6). Absorbance at 324 nm was plotted as a function of time. A non-linear regression yielded the half-live of the PSS. Due to the slow rate of thermal isomerization only a short period could be measured. Therefore the limit value was set to 0.939 as this was the absorbance at 324 nm of 11 at the thermal […]
Figure S6: 11 (50 µM) in 5% DMSO (v/v) in enzyme assay buffer after 5 minutes of 365 nm irradiation. Absorbance at 324 nm of plotted as a function of time with non-linear fit (red line).
(1 picture or pasted object on this page, not shown here)
Table S2: Non-linear fit of measured values.

In the case of NC(=O)c1cncc(N=Nc2ccc(F)cc2)c1 [Compound 11, 5-[(4-Fluorophenyl)diazenyl]nicotinamide], the “percentage of (Z)-11 in PSS” value ([1]; 365 nm irradiation) is reported as 84%, the “percentage of (Z)-11 in PSS” value ([1]; 452 nm irradiation, HPLC, UV–vis detection at isosbestic points) is reported as “about 25%” and the “Isomer composition ((E)-11 / (Z)-11)” value ([1]; PSS (365 nm), 5 minutes, λobs 244 nm) is reported as 17 / 83. For the same molecule, the “Isomer composition ((E)-11 / (Z)-11)” value ([1]; PSS (365 nm), 5 minutes, λobs 270 nm) was 16 / 84, the “Isomer composition ((E)-11 / (Z)-11)” value ([1]; PSS (452 nm), 1 minute, λobs 244 nm) was 76 / 24 and the “Isomer composition ((E)-11 / (Z)-11)” value ([1]; PSS (452 nm), 1 minute, λobs 270 nm) was 74 / 26. For the same molecule, the “Isomer composition ((E)-11 / (Z)-11)” value ([1]; thermal equilibrium (∆), λobs 244 nm) was 98 / 2, the “Isomer composition ((E)-11 / (Z)-11)” value ([1]; thermal equilibrium (∆), λobs 270 nm) was 99 / 1 and the “t½ of PSS (thermal)” value [2] was 12.5 days. It also gave a melting point of 212.3 °C.
